Consider 41 molecules from patent publication US12655139B2, “Isoxazolidines as RIPK1 inhibitors and use thereof” (SANOFI, priority 2020, dated 2026).

pIC50: −log10 of the molar value. Where a name gives a salt, the structure may show the parent alone. Some results are limits rather than exact numbers.

The first assay has as its system U937 cells. Put plainly: Cellular assay in U937 cells on cell death (necroptosis), TNFα/zVAD.fmk. The assay is classed as cell-based. Particulars: Homo sapiens, U-937, Comparator table 5; read-out: U937 IC50 (uM) Mean. From the text: Cellular Assay in U937 Cells to Measure the Activity of RIPK1-Inhibitors on Cell Death (Necroptosis).
Cell death was quantified in 96 well plates by determination of the amount of live cell using a CellTiter 96 AQueous reagent (Promega), a calorimetric method to measure the amount of live cells by reducing tetrazolium compound [3-(4,5-dimethylthiazol-2-yl)-5-(3-carboxymethoxyphenyl)-2-(4-sulfophenyl)-2H-tetrazolium, inner salt; MTS] into formazan. Absorbance of formazan was read at 490 nm. The inhibitory activity of the test compound was quantified in a concentration response curve (CRC) experiment. Compounds were obtained as 10 mM stock solutions and were diluted 1 to 10 volumes with DMSO to yield a 1 mM solution. From this solution 2 μl were diluted with 998 μl growth medium. 100 μl of 2 μM compound solution was further diluted sequentially with a dilution factor of 2.5 by adding 150 μl growth medium. A total of 10 concentrations were tested ranging from 10 μM to 0.26 nM or from 1 μM to 0.07 nM.
U937 cells were cultured in RPMI1640 Glutamax and 10% heat inactivated FBS. 50 μl cell suspension containing 1×10^6 cells/ml supplemented with 50 μM zVAD.fmk (Benzyloxycarbonyl-Val-Ala-Asp (OMe) fluoromethylketone) and 100 ng/ml recombinant human TNFα were dispensed in each well of a 96-well plate. 50 μl of compound dilutions (see above) were added and the cell suspension incubated overnight (18 to 24 hours) at 37° C., 5% CO2 in a humidified atmosphere (95% rH). High (no compound) and low control (no TNFα, zVAD.fmk) were tested with 7 replicates; all compound concentrations were tested in duplicates on each experimental plate.
CellTiter 96 Aqueous reagent was mixed (100 μl PMS (phenazine methosulfate) solution/2 ml MTS (3-(4,5-[…])-5-(3-carboxymethoxyphenyl)-2-(4-sulfophenyl)-2H-tetrazolium, inner salt) solution) and 20 μl were added per well. After 4 hours incubation at 37° C. (5% CO2 95% rH) optical density was measured at 490 nm on a microplate reader (Tecan Infinite M1000).
The % inhibition is expressed as percentage of the maximal inhibition value obtained in the absence of TNFα/zVAD.fmc.
As for `NC(=O)c1ccnc(N2CCC(C(=O)N3OCC[C@H]3c3cc(F)cc(F)c3)CC2)n1` [E, reference compound], the concentration for half-maximal inhibition (IC50) worked out at 0.002 µM.

Regarding `CC(C)(C)OC(=O)N1CC[C@@H](C(=O)N2OCC[C@H]2c2cncc(F)c2)[C@@H](F)C1` [F, reference compound], the half-maximal inhibitory concentration (IC50) was over 10 µM.

The assay is the same for the next values; noted with them: Homo sapiens, U-937, Table 2; read-out: U937 IC50.
As for `Cn1ccc(C2CCON2C(=O)C2CCN(c3nccc(C(N)=O)n3)CC2)n1` (racemic) [Ex. 002*], the pIC50 is 5.74. On the same count and under the same terms, with `NC(=O)c1ccnc(N2CCC(C(=O)N3OCCC3c3ccc4nccn4c3)CC2)n1` (racemic) [Ex. 012*] the figure was 5.14; with `NC(=O)c1cncc(C2CCON2C(=O)C2CCN(c3nccc(C(N)=O)n3)CC2)c1` (racemic) [Ex. 029*], 5.66; with `CNC(=O)c1cncc(C2CCON2C(=O)C2CCN(c3nccc(C(N)=O)n3)CC2)c1` (racemic) [Ex. 040*], under 5.00. Take `Cc1nnc(C2CCON2C(=O)C2CCN(c3nccc(C(N)=O)n3)CC2)s1` (racemic) [Ex. 089*]: the pIC50 was 5.67. Turning to `Cn1ccc(C2CCON2C(=O)C2CCN(c3cc(C#N)ncn3)CC2)n1` (racemic) [Example 006, 6-[4-[3-(1-methylpyrazol-3-yl)isoxazolidine-2-carbonyl]-1-piperidyl]pyrimidine 4-carbonitrile], the pIC50 was 5.25.

For `Cn1ccc(C2CCON2C(=O)C2CCN(c3cc(C(N)=O)ncn3)CC2)n1` (racemic) [Example 008, 6-[4-[3-(1-methylpyrazol-3-yl)isoxazolidine-2-carbonyl]-1-piperidyl] pyrimidine-4-carboxamide TFA salt], the pIC50 is 5.28. Regarding `CNC(=O)c1cncc(C2CCON2C(=O)C2CCN(c3cc(C(N)=O)ncn3)CC2)c1` (racemic) [Example 041], the pIC50 was under 5.00. In the case of `NC(=O)c1ccnc(N2CCC(C(=O)N3OCC[C@H]3c3cncnc3)CC2)n1` [Ex. 003], the pIC50 is 6.54. Same read-out and setting: the result for `N#Cc1cncc([C@@H]2CCON2C(=O)C2CCN(c3cc(C#N)ncn3)CC2)c1` [Ex. 005] reads 6.94; that for `N#Cc1cncc([C@@H]2CCON2C(=O)C2CCN(c3cc(C#N)ccn3)CC2)c1` [Ex. 017], 6.46; that for `CC1(C(=O)N2OCC[C@H]2c2cncc(C#N)c2)CCN(c2ncc(F)c(OCC#N)n2)CC1` [Ex. 018], 7.99. On the same count and under the same terms, with `NC(=O)c1ccnc(N2CCC(C(=O)N3OCCC3c3ccc(O)nc3)CC2)n1` (centres unmarked) [Ex. 022] the figure was under 5.00; with `CCOC(=O)COc1nc(N2CCC(C(=O)N3OCC[C@H]3c3cncc(C#N)c3)CC2)ncc1F` [Ex. 027, Ethyl 2-[2-[4-[(3S)-3-(5-cyano-3-pyridyl)isoxazolidine-2-carbonyl]-1-piperidyl]-5-fluoro-pyrimidin-4-yl]oxyacetate], 6.28; with `CC(=O)Nc1cncc([C@@H]2CCON2C(=O)C2CCN(c3nccc(C(N)=O)n3)CC2)c1` [Ex. 043], 5.57.

As for `NC(=O)c1ccnc(N2CCC(C(=O)N3OCC[C@H]3c3cncc(N4CCCC4=O)c3)CC2)n1` [Ex. 060], the pIC50 is 5.14. `CC1(C(=O)N2OCC[C@H]2c2cncnc2)CCN(c2ncc(F)c(OCC#N)n2)CC1` [Ex. 062]: the pIC50 is 7.91.

With `N#CCOc1nc(N2CCC(C(=O)N3OCC[C@H]3c3cncnc3)CC2)ncc1F` [Ex. 063], the pIC50 was 7.82. The same measure, in the same setting: with `NC(=O)c1ccnc(N2CCC(C(=O)N3OCC[C@H]3c3cnccn3)CC2)n1` [Ex. 074] the figure was 8.01; with `CCN1CCC(CNC(=O)c2ccnc(N3CCC(C(=O)N4OCC[C@H]4c4cncc(C#N)c4)CC3)n2)CC1` [Ex. 079], 5.78; with `Cc1cncc([C@@H]2CCON2C(=O)C2CCN(c3ncc(F)c(C(N)=O)n3)CC2)n1` [Ex. 082], 8.49. The same measure, in the same setting: the result for `NC(=O)c1nc(N2CCC(C(=O)N3OCC[C@H]3c3ccc(Cl)cn3)CC2)ncc1F` [Ex. 084] reads 7.75; that for `N#Cc1cncc([C@@H]2CCON2C(=O)C2CCN(c3nccc(C(=O)NC4CNC4)n3)CC2)c1` [Ex. 086, N-(Azetidin-3-yl)-2-[4-[(3S)-3-(5-cyano-3-pyridyl)isoxazolidine-2-carbonyl]-1-piperidyl]pyrimidine-4-carboxamide TFA salt], 5.06; that for `NC(=O)c1cncc([C@@H]2CCON2C(=O)C2CCN(c3ncc(F)c(C(N)=O)n3)CC2)c1` [Ex. 101], 6.35.

In the case of `N#Cc1cncc([C@@H]2CCON2C(=O)C2CCN(c3nccc(C(N)=O)n3)CC2)n1` [Ex. 118], the pIC50 was 8.12.

On to `N#Cc1cncc([C@@H]2CCON2C(=O)C2CCN(c3nccc(Br)n3)CC2)c1` [Ex. 161], for which the pIC50 was 7.70. Consider `COc1cncc([C@@H]2CCON2C(=O)C2CCN(c3ncc(F)c(C(N)=O)n3)CC2)n1` [Ex. 177], for which the pIC50 is 8.23.

`N#Cc1nc([C@@H]2CCON2C(=O)C2CCN(c3nccc(C(N)=O)n3)CC2)cs1` [Ex. 188]: the pIC50 was 6.69.

Regarding `N#Cc1ccc([C@@H]2CCON2C(=O)C2CCN(c3ncc(F)c(C#N)n3)CC2)nc1` [compound 112, 2-[4-[(3S)-3-(5-cyano-2-pyridyl)isoxazolidine-2-carbonyl]-1-piperidyl]-5-fluoro-pyrimidine-4-carbonitrile], the pIC50 is 7.12.

As to `COc1nc(N2CCC(C(=O)N3OCC[C@H]3c3ccc(C#N)cn3)CC2)ncc1F` [compound 117], the pIC50 is 7.16. The same measure, in the same setting: the result for `N#Cc1cncc([C@@H]2CCON2C(=O)C2CCN(c3ncc(F)c(O)n3)CC2)c1` [compound 125, 5-[(3S)-2-[1-(5-fluoro-4-hydroxy-pyrimidin-2-yl)piperidine-4-carbonyl]isoxazolidin-3-yl]pyridine-3-carbonitrile] reads 5.06; that for `Cc1ccc([C@@H]2CCON2C(=O)C2CCN(c3cc(C#N)ncn3)CC2)cn1` [compound 128, (S)-6-(4-(3-(6-methylpyridin-3-yl)isoxazolidine-2-carbonyl)piperidin-1-yl)pyrimidine-4-carbonitrile], 6.65. With `Cc1cncc([C@@H]2CCON2C(=O)C2CCN(c3nccc(C(N)=O)n3)CC2)c1` [compound 132, (S)-2-(4-(3-(5-methylpyridin-3-yl)isoxazolidine-2-carbonyl)piperidin-1-yl)pyrimidine-4-carboxamide], the pIC50 is 7.50. Same read-out and setting: with `Cc1ccc([C@@H]2CCON2C(=O)C2CCN(c3cc(C(N)=O)ncn3)CC2)cn1` [compound 135, (S)-6-(4-(3-(6-methylpyridin-3-yl)isoxazolidine-2-carbonyl)piperidin-1-yl)pyrimidine-4-carboxamide] the figure was 6.31. The same measure, in the same setting: the result for `Cc1ncc([C@@H]2CCON2C(=O)C2CCN(c3nccc(C#N)n3)CC2)cc1F` [compound 136, (S)-2-(4-(3-(5-fluoro-6-methylpyridin-3-yl)isoxazolidine-2-carbonyl)piperidin-1-yl)pyrimidine-4-carbonitrile] reads 7.69; that for `N#Cc1cncc([C@@H]2CCON2C(=O)C2CCN(c3ccnc(N)n3)CC2)c1` [compound 148, 5-[(3S)-2-[1-(2-aminopyrimidin-4-yl)piperidine-4-carbonyl]isoxazolidin-3-yl]pyridine-3-carbonitrile], 5.66. Regarding `O=C(C1CCN(c2ncnc(Cl)n2)CC1)N1OCC[C@H]1c1cnccn1` [compound 174, [1-(4-chloro-1,3,5-triazin-2-yl)-4-piperidyl]-[(3S)-3-pyrazin-2-ylisoxazolidin-2-yl]methanone], the negative-log IC50 (pIC50) is 5.52. Still for that read-out and setting: the result for `COc1nc(Cl)nc(N2CCC(C(=O)N3OCC[C@H]3c3cnccn3)CC2)n1` [compound 181, [1-(4-chloro-6-methoxy-1,3,5-triazin-2-yl)-4-piperidyl]-[(3S)-3-pyrazin-2-ylisoxazolidin-2-yl]methanone] reads 7.52.

For `Cc1ccc([C@@H]2CCON2C(=O)C2CCN(c3ncc(F)c(C(N)=O)n3)CC2)s1` [compound 183, 5-fluoro-2-[4-[(3S)-3-(5-methyl-2-thienyl)isoxazolidine-2-carbonyl]-1-piperidyl]pyrimidine-4-carboxamide], the negative-log IC50 (pIC50) was 9.17.
